What was measured:
[1] = molecular target: T1, G-protein coupled bile acid receptor 1 (Homo sapiens, UniProt Q8TDU6); experiment: Agonist activity at TGR5 expressed in NCI-H716 cells assessed as cAMP level after 60 mins by FRET analysis; assay type: functional, cell-based
T1 sequence (Q8TDU6 whole entry): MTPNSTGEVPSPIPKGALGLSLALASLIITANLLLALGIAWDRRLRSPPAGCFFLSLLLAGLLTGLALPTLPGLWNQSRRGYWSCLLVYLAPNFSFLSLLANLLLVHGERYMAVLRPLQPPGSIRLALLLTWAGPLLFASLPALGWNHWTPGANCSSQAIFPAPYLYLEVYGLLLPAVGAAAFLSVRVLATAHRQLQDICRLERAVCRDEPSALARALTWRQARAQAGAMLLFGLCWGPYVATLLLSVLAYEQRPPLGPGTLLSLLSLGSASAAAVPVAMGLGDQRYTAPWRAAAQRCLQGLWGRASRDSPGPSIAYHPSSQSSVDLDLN

Bile acid receptor = molecular target: T2, Bile acid receptor (Homo sapiens, UniProt Q96RI1); experiment: Agonist activity at GST-tagged FXR-LBD using biotinylated-SRC-1 peptide as substrate preincubated with compound for 30 mins measured after 4 hrs; assay type: functional
T2 sequence (Q96RI1 whole entry): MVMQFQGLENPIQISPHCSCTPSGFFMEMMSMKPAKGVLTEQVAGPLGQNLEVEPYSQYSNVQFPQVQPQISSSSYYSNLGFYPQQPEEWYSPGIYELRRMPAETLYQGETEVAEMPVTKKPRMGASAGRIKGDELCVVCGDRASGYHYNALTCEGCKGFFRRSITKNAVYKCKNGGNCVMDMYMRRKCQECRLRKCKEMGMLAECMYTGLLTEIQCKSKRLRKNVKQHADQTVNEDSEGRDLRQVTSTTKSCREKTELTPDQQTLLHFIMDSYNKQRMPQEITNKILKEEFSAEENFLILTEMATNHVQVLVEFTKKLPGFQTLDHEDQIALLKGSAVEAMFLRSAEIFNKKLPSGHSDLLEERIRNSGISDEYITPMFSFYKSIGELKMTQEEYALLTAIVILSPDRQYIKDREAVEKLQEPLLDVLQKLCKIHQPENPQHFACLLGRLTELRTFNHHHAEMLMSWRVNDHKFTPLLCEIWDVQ

Albumin = Albumin (Homo sapiens, UniProt P02768); experiment: Binding affinity to albumin by equilibrium dialysis; assay type: ADME; set-up: concentration or dose not given beside the values; conditions: isolated protein
[2] = Aqueous solubility of the compound in 0.1 M HCl water at […] by HPLC-ES-MS/MS; assay type: physicochemical
Liver = experiment: Drug metabolism in mouse liver assessed as taurine conjugate formation; assay type: ADME, tissue-based
[3] = Critical micelle concentration of the compound in 0.15 M NaCl water solution; assay type: physicochemical; conditions: buffer
[4] = 1-Octanol/water partition coefficient, log P of the compound by conventional shake-flask method; assay type: physicochemical
[5] = 1-octanol/water, read-out: logP

Chain of Albumin (P02768 whole entry): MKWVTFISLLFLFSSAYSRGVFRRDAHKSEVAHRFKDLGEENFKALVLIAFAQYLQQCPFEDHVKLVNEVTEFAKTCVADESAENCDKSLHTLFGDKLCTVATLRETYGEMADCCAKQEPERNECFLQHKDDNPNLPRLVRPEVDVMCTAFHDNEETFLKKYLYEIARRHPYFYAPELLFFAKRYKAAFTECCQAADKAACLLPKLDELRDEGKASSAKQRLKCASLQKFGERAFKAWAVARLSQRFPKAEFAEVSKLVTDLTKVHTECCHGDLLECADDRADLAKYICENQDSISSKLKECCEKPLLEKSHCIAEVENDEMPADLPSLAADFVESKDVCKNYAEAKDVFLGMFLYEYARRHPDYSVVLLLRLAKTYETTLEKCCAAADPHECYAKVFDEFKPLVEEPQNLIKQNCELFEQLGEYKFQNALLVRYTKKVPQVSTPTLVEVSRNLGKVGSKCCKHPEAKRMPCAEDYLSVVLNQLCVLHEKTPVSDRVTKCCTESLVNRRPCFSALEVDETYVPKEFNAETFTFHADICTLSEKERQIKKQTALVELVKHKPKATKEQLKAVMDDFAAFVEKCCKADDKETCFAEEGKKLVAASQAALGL

Structure (SMILES)	EC50 [1] [µM]	EC50 (Bile acid receptor) [µM]	Activity (Albumin) [%]	solubility [2] [µM]	Drug metabolism (Liver)	CMC [3] [mM]	logP [4, 5]	logP ([4]; octanol/water)
C[C@H](CCC(=O)O)[C@H]1[C@@H](O)C[C@H]2[C@@H]3[C@H](O)C[C@@H]4C[C@H](O)CC[C@]4(C)[C@H]3CC[C@]12C	25	55						
CC[C@H]1[C@@H](O)[C@@H]2[C@H](CC[C@]3(C)[C@@H]([C@H](C)CCC(=O)O)[C@H](O)C[C@@H]23)[C@@]2(C)CC[C@@H](O)C[C@@H]12	87	22						
CC[C@H]1[C@@H](O)[C@@H]2[C@H](CC[C@]3(C)[C@@H]([C@H](C)CCC(=O)[O-])[C@@H](O)C[C@@H]23)[C@@]2(C)CC[C@@H](O)C[C@@H]12.[Na+]	0.65	11.5	83	120	Active	5.9	1.6	
CC[C@H]1[C@@H](O)[C@@H]2[C@H](C[C@H](O)[C@]3(C)[C@@H]([C@H](C)C[C@H](C)C(=O)O)CC[C@@H]23)[C@@]2(C)CC[C@@H](O)C[C@@H]12			62			2	1.4	
C[C@H](CCC(=O)[O-])[C@H]1[C@H](O)C[C@H]2[C@@H]3[C@H](O)C[C@@H]4C[C@H](O)CC[C@]4(C)[C@H]3CC[C@]12C.[Na+] [AVICHOLIC ACID SODIUM SALT]	160	> 100	58	188		10	1.1	
C[C@H](CCC(=O)O)[C@H]1CC[C@H]2[C@@H]3[C@H](O)C[C@@H]4C[C@H](O)CC[C@]4(C)[C@H]3CC[C@]12C [CHENODIOL]			93			3		2.2
C[C@H](CCC(=O)O)[C@H]1CC[C@H]2[C@@H]3[C@H](O)C[C@@H]4C[C@H](O)CC[C@]4(C)[C@H]3C[C@H](O)[C@]12C [CHOLIC ACID]			50			9.2		

Reference: ChEMBL document CHEMBL2062395, “Avicholic Acid: A Lead Compound from Birds on the Route to Potent TGR5 Modulators” (ACS Med Chem Lett, 2012)
